{"source": "patent US8309718B2", "about": "“4-pyrazolyl-N-arylpyrimidin-2-amines and 4-pyrazolyl-N-heteroarylpyrimidin-2-amines as janus kinase inhibitors” (Incyte Corporation, priority 2007, dated 2012)", "data": [{"molecular_target": "T1, human JAK2 (Homo sapiens, UniProt O60674)", "T1 construct": "JAK2 (a.a. 828-1132); His tag (N); made in house; host or cells: insect cells (baculovirus)", "T1 sequence (O60674 828-1132)": "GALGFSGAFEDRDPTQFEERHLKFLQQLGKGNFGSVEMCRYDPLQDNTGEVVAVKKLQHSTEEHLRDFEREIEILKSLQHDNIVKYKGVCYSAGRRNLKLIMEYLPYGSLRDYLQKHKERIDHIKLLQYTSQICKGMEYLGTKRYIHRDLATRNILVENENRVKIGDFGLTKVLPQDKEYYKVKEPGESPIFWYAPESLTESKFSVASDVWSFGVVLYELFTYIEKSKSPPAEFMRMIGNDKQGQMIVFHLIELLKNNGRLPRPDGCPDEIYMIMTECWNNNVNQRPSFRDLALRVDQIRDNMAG", "test": "In vitro JAK kinase assay (HTRF, phosphorylation of biotinylated peptide)", "type": "biochemical", "conditions": "catalytic domain a.a. 828-1132, 30 μM ATP, 500 nM peptide, room temperature 1 hr; read-out: JAK-2 IC50", "in_short": "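His-tagged human JAK2 catalytic domain (a.a. 828-1132), baculovirus/insect-cell expressed; phosphorylation of 500 nM biotinylated peptide at 30 μM ATP in 50 mM Tris pH 7.8, 100 mM NaCl, 5 mM DTT, 0.01% BSA. 1 h at room temperature, EDTA stop, HTRF read (Eu-Py20/SA-APC); IC50.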", "units": {"IC50": "nM"}, "values": [{"smiles": "Cc1noc(C)c1C(=O)Nc1ccc(Nc2nccc(-c3cnn(C(CC#N)C4CCCC4)c3)n2)cc1", "note": "(racemic) [Example 189, N-(4-(4-(1-(2-cyano-1-cyclopentylethyl)-1H-pyrazol-4-yl)pyrimidin-2-ylamino)phenyl)-3,5-dimethylisoxazole-4-carboxamide]", "IC50": "< 100"}, {"smiles": "Cn1ccc(S(=O)(=O)Nc2ccc(Nc3nccc(-c4cnn(C(CC#N)C5CCCC5)c4)n3)cc2)n1", "note": "(racemic) [Example 190, N-(4-(4-(1-(2-cyano-1-cyclopentylethyl)-1H-pyrazol-4-yl)pyrimidin-2-ylamino)phenyl)-1-methyl-1H-pyrazole-3-sulfonamide]", "IC50": "< 100"}, {"smiles": "N#CCC(C1CCCC1)n1cc(-c2ccnc(Nc3ccc(N4CCCS4(=O)=O)cc3)n2)cn1", "note": "(racemic) [Example 192, 3-cyclopentyl-3-(4-(2-(4-(1,1-dioxidoisothiazolidin-2-yl)phenyl)aminopyrimidin-4-yl)-1H-pyrazol-1-yl)propanenitrile]", "IC50": "< 100"}, {"smiles": "Cc1nc(-c2ccc(S(=O)(=O)Nc3ccc(Nc4nccc(-c5cnn(C(CC#N)C6CCCC6)c5)n4)cc3)s2)cs1", "note": "(racemic) [Example 193, N-(4-(4-(1-(2-cyano-1-cyclopentylethyl)-1H-pyrazol-4-yl)pyrimidin-2-ylamino)phenyl)-5-(2-methylthiazol-4-yl)thiophene-2-sulfonamide]", "IC50": "< 100"}, {"smiles": "Cc1cccc(S(=O)(=O)Nc2ccc(Nc3nccc(-c4cnn(C(CC#N)C5CCCC5)c4)n3)cc2)n1", "note": "(racemic) [Example 194, N-(4-(4-(1-(2-cyano-1-cyclopentylethyl)-1H-pyrazol-4-yl)pyrimidin-2-ylamino)phenyl)-6-methylpyridine-2-sulfonamide]", "IC50": "< 100"}, {"smiles": "N#CCC(C1CCCC1)n1cc(-c2ccnc(Nc3ccc(NS(=O)(=O)c4ccc(-c5ccccn5)s4)cc3)n2)cn1", "note": "(racemic) [Example 195, N-(4-(4-(1-(2-cyano-1-cyclopentylethyl)-1H-pyrazol-4-yl)pyrimidin-2-ylamino)phenyl)-5-(pyridin-2-yl)thiophene-2-sulfonamide]", "IC50": "< 100"}, {"smiles": "N#CCC(C1CCCC1)n1cc(-c2ccnc(Nc3ccc(NS(=O)(=O)c4ccc(Cl)s4)cc3)n2)cn1", "note": "(racemic) [Example 196, 5-chloro-N-(4-(4-(1-(2-cyano-1-cyclopentylethyl)-1H-pyrazol-4-yl)pyrimidin-2-ylamino)phenyl)thiophene-2-sulfonamide]", "IC50": "< 100"}, {"smiles": "N#CCC(C1CCCC1)n1cc(-c2ccnc(Nc3ccc(NS(=O)(=O)c4ccc(N5CCOCC5)nc4)cc3)n2)cn1", "note": "(racemic) [Example 197, N-(4-(4-(1-(2-cyano-1-cyclopentylethyl)-1H-pyrazol-4-yl)pyrimidin-2-ylamino)phenyl)-6-morpholinopyridine-3-sulfonamide]", "IC50": "< 100"}, {"smiles": "N#CCC(C1CCCC1)n1cc(-c2ccnc(Nc3ccc(NC(=O)O[C@@H]4CCOC4)cc3)n2)cn1", "note": "(mixture of isomers) [Example 199, (R)-tetrahydrofuran-3-yl 4-(4-(1-(2-cyano-1-cyclopentylethyl)-1H-pyrazol-4-yl)pyrimidin-2-ylamino)phenylcarbamate]", "IC50": "< 100"}, {"smiles": "Cn1ccc(S(=O)(=O)Nc2cccc(Nc3nccc(-c4cnn(C(CC#N)C5CCCC5)c4)n3)c2)n1", "note": "(racemic) [Example 201, N-(3-(4-(1-(2-cyano-1-cyclopentylethyl)-1H-pyrazol-4-yl)pyrimidin-2-ylamino)phenyl)-1-methyl-1H-pyrazole-3-sulfonamide]", "IC50": "< 100"}, {"smiles": "CN(C)S(=O)(=O)Nc1cccc(Nc2nccc(-c3cnn(C(CC#N)C4CCCC4)c3)n2)c1", "note": "(racemic) [Example 202, NA-(3-(4-(1-(2-cyano-1-cyclopentylethyl)-1H-pyrazol-4-yl)pyrimidin-2-ylamino)phenyl)-N,N-dimethylsulfamide]", "IC50": "< 100"}, {"smiles": "N#CCC(C1CCCC1)n1cc(-c2ccnc(Nc3ccc(NC(=O)CN4CCCC4)cc3)n2)cn1", "note": "(racemic) [Example 203, N-(4-(4-(1-(2-cyano-1-cyclopentylethyl)-1H-pyrazol-4-yl)pyrimidin-2-ylamino)phenyl)-2-(pyrrolidin-1-yl)acetamide]", "IC50": "< 100"}, {"smiles": "N#CCC(C1CCCC1)n1cc(-c2ccnc(Nc3ccc(NC(=O)CN4CCC(O)CC4)cc3)n2)cn1", "note": "(racemic) [Example 205, N-(4-(4-(1-(2-cyano-1-cyclopentylethyl)-1H-pyrazol-4-yl)pyrimidin-2-ylamino)phenyl)-2-(4-hydroxypiperidin-1-yl)acetamide]", "IC50": "< 100"}, {"smiles": "N#CCC(C1CCCC1)n1cc(-c2ccnc(Nc3ccc(NC(=O)CN4CCNC(=O)C4)cc3)n2)cn1", "note": "(racemic) [Example 206, N-(4-(4-(1-(2-cyano-1-cyclopentylethyl)-1H-pyrazol-4-yl)pyrimidin-2-ylamino)phenyl)-2-(3-oxopiperazin-1-yl)acetamide]", "IC50": "< 100"}, {"smiles": "N#CCC(C1CCCC1)n1cc(-c2ccnc(Nc3ccc(NC(=O)CN4CCOCC4)cc3)n2)cn1", "note": "(racemic) [Example 207, N-(4-(4-(1-(2-cyano-1-cyclopentylethyl)-1H-pyrazol-4-yl)pyrimidin-2-ylamino)phenyl)-2-morpholinoacetamide]", "IC50": "< 100"}, {"smiles": "N#CCC(C1CCCC1)n1cc(-c2ccnc(Nc3ccc(NC(=O)CNCC4CCOCC4)cc3)n2)cn1", "note": "(racemic) [Example 208, N-(4-(4-(1-(2-cyano-1-cyclopentylethyl)-1H-pyrazol-4-yl)pyrimidin-2-ylamino)phenyl)-2-((tetrahydro-2H-pyran-4-yl)methylamino)acetamide]", "IC50": "< 100"}, {"smiles": "N#CCC(C1CCCC1)n1cc(-c2ccnc(Nc3ccc(NC(=O)CNCC4CC4)cc3)n2)cn1", "note": "(racemic) [Example 210, N-(4-(4-(1-(2-cyano-1-cyclopentylethyl)-1H-pyrazol-4-yl)pyrimidin-2-ylamino)phenyl)-2-(cyclopropylmethylamino)acetamide]", "IC50": "< 100"}, {"smiles": "N#CCC(C1CCCC1)n1cc(-c2ccnc(Nc3ccc(C(=O)N4CCOCC4)cc3)n2)cn1", "note": "(racemic) [Example 213, 3-cyclopentyl-3-(4-(2-(4-(morpholine-4-carbonyl)phenylamino)pyrimidin-4-yl)-1H-pyrazol-1-yl)propanenitrile]", "IC50": "< 100"}, {"smiles": "N#CCC(C1CCCC1)n1cc(-c2ccnc(Nc3ccc(C(=O)NCC4CCOCC4)cc3)n2)cn1", "note": "(racemic) [Example 214, 4-(4-(1-(2-cyano-1-cyclopentylethyl)-1H-pyrazol-4-yl)pyrimidin-2-ylamino)-N-((tetrahydro-2H-pyran-4-yl)methyl)benzamide]", "IC50": "< 100"}, {"smiles": "N#CCC(C1CCCC1)n1cc(-c2ccnc(Nc3ccc(C(=O)N4[C@@H]5CC[C@H]4C[C@@H](O)C5)cc3)n2)cn1", "note": "(mixture of isomers) [Example 215, 3-cyclopentyl-3-(4-(2-(4-((3-endo)-3-hydroxy-8-azabicyclo[3.2.1]octane-8-carbonyl)phenylamino)pyrimidin-4-yl)-1H-pyrazol-1-yl)propanenitrile]", "IC50": "< 100"}, {"smiles": "N#CCC(C1CCCC1)n1cc(-c2ccnc(Nc3ccc(C(=O)N4C5CC6CC4CC(C5)O6)cc3)n2)cn1", "note": "(racemic) [Example 216, 3-cyclopentyl-3-(4-(2-(4-(2-oxa-6-azatricyclo[3.3.1.1(3,7)]dec-6-ylcarbonyl)phenyl)aminopyrimidin-4-yl)-1H-pyrazol-1-yl)propanenitrile]", "IC50": "< 100"}]}]}
